What was measured:
[1] = continuous i.v. administration toxicity in gerbils; assay type: in vivo; details: 50 mg/kg/hr for a total of 48 hr
From the text: (§1) In vivo toxicity tests have indicated the following. […] An LD50 has yet to be determined because of the lack of toxicity.

[2] = pharmacokinetic studies, plasma half-life; assay type: in vivo; details: rat; limited pharmacokinetic studies
From the text: Limited pharmokinetic studies indicate that the plasma half-life in the rat is three to four hours.

[3] = bioavailability / distribution estimate; assay type: in vivo
[4] = acute i.v. toxicity in gerbils; assay type: in vivo; details: 10 to 300 mg/kg i.v., injected within 60 seconds
From the text: as §1

[5] = tested on: piroxicam-induced gastric ulcers; assay: suppression of piroxicam-induced gastric ulcers by interventions (PBN, free radical scavengers, ascorbate); assay type: in vivo, rat (male Sprague-Dawley)
Method: FIG. 2 is a graph of % control ulceration from piroxicam versus the % ulceration in the presence of free radical scavengers. The […] scavenger dimethylthiourea (DMTU, 500 mg/kg i.p.) was given 24 hours and 1 hour before piroxicam. […] The antioxidant butylated hydroxytoluene (BHT, 25 mg/kg/day i.p. in corn oil) was given for three days before and again 1 hour before piroxicam. The % control ulceration is determined by averaging the ratios of cm^2 ulceration in control stomachs from rats given piroxicam alone, and multiplying×100. +P< 0.01 compared to piroxicam alone.
(§2) Male Sprague-Dawley rats (Charles River, Wilmington, Mass.) weighing 300-325 g were housed individually in wire bottomed cages to prevent ingestion of hair and feces. Animals were maintained without food for 48 hours and without water for 24 hours prior to each experiment. Piroxicam or aspirin and other NSAIDS were suspended in a vehicle of 1% carboxymethylcellulose, 0.1% Tween 80 and 0.15 M HCl, and administered in a volume of 1 ml on the morning of study by oral gavage using an 18 gauge curved blunt needle (Popper and Sons, New Hyde Park, N.Y.). One ml of vehicle alone was administered for control experiments. HCl was added to the vehicle to insure an acid environment in the stomach in all studies. […] Four hours after the administration of NSAID or vehicle, rats were euthanized with sodium pentobarbital (100 mg/kg IP), and the surface area of ulceration per stomach was quantitated using morphometric techniques. Stomachs were removed, the lumen was exposed by an incision along the radius of greater curvature, and the stomach was washed in phosphate buffered saline. The luminal surface was laid out on a flat surface with gross folds removed by gentle distension. The percentage of surface involved with submucosal hemorrhage was then determined by point counting, as described by Weibel, E. R. Stereological Methods: Practical Methods for Biological Morphometry. Academic Press, New York 1980. This was done by tabulation of the percentage of points over ulcerations using a point counting eyepiece graticle (16×16 points in a square format). At the 12X magnification used on the Wild dissecting microscope (Wild-Heerbrugg, Basel, Switzerland), the graticle covered a 1 cm^2 area of the surface. Four to five non-overlapping sampling sites were taken to fully cover the exposed surface. To determine the total luminal surface area, the outline of the outer boundary of the stomach was traced using a transparent acetate sheet, and the area was determined from planimetry. The surface area of ulcerated regions per stomach was then determined by multiplying the surface density of ulceration regions by the luminal surface area of the stomach.
Differences in total luminal surface area in cm^2, surface area of ulcerated regions per stomach and biochemical analyses between each treatment intervention and its corresponding untreated control group are compared using the Mann-Whitney U Test, Dixon, W. J., Massey, F. J., Jr. Introduction to statistical methods, 4th edition. (New York: McGraw Hill, 1983). […] In vitro studies are compared using the Student's unpaired T-test, Dixon, W. J., Massey, F. J., Jr. Introduction to statistical methods, 4th edition. (New York: McGraw Hill, 1983). Values are expressed as mean±SEM. Significance is assumed when P<0.05.
In each experiment, the surface area of gastric ulceration produced by piroxicam in 15 treated rats was compared to that in 15 rats of the same age and size that were fasted simultaneously but which received no intervention. Phenylbutyl nitrone (30 mg/kg) was given orally in water 1 hour before piroxicam and also added to vehicle when piroxicam was administered. When intervention were given with piroxicam, the pH of the final mixture was adjusted if necessary to equal that of piroxicam and vehicle alone.

[6] = previous studies, standard techniques; cited from earlier work
pH stability of PBN = assay type: physicochemical; details: degrades at pH less than approximately
[7] = in vivo acute toxicity in rodents; details: doses up to 3 g/kg in rodents
From the text: as §1

[8] = tested on: isolated perfused gastric mucosa; details: cited from earlier work
gastric ulceration = assay: NSAID-induced gastric ulceration in rats (surface area of ulceration); assay type: in vivo, rat (male Sprague-Dawley); details: aspirin 200, diflunisal 125, naproxen 150, ibuprofen 230 mg/kg; oral gavage, 4 h
Method: as §2, with “Animals were maintained without food for 48 hours and without water for 24 hours prior to each experiment.” left out, “Academic Press, New York 1980.” left out
Differences in total luminal surface area in cm^2, surface area of ulcerated regions per stomach and biochemical analyses between each treatment intervention and its corresponding untreated control group are compared using the Mann-Whitney U Test, Dixon, W. J., Massey, F. J., Jr. Introduction to statistical methods, 4th edition. […] In vitro studies are compared using the Student's unpaired T-test, Dixon, W. J., Massey, F. J., Jr. Introduction to statistical methods, 4th edition. […] Values are expressed as mean±SEM. Significance is assumed when P<0.05.
Phenyl N-tert-butyl nitrone is obtained from Aldrich Chemicals, Milwaukee, Wis. All other chemicals and pharmaceuticals are from Sigma Chemical.

Compound: CC(C)(C)[N+]([O-])=Cc1ccccc1 [PBN, N-tert-Butyl-α-phenylnitrone]
- adverse effect, continuous i.v. administration [1]: no adverse effect
- plasma half-life [2]: three to four
- Kp ([3]; brain, read-out: brain level as % of the plasma concentration): 0.8
- distribution, in words ([3]; in vivo): widely available throughout the body and is able to cross all of the barriers to distribution, including the blood brain barrier
- acute toxic effects, i.v. [4]: no acute toxic effects
- ulcerations/unit area ([5]; piroxicam 23 mg/kg only, or plus PBN 30 mg/kg orally 1 hour before and with piroxicam, p<0.0052): 0.077±0.104 ulcerations/unit area
- inhibition of piroxicam-induced ulcers, in words ([5]; piroxicam 23 mg/kg, FIG. 2): markedly inhibited
- mutagenicity [6]: not mutagenic
- pH below which PBN degrades (pH stability of PBN): 3 to 4 pH
- adverse effects, acute doses [7]: no adverse effects

Compound: O=C1O[C@H]([C@@H](O)CO)C(O)=C1O [ascorbate]
- increase in ulceration compared to control stomachs treated with piroxicam alone ([5]; ascorbate plus piroxicam, P<0.001): over 600%
- ulceration (ascorbate experiment) ([5]; ascorbate-treated stomachs (with piroxicam) vs piroxicam alone, P<0.001): 0.194±0.039 cm^2

Compound: CC(=O)Oc1ccccc1C(=O)O [aspirin]
- mucosal adenosine triphosphate (ATP) and phosphocreatine (PC) [8]: decreases mucosal adenosine triphosphate (ATP) and phosphocreatine (PC)
- gastric ulceration caused by NSAID (gastric ulceration): 0.972±0.318 cm^2

Compound: O=C(O)c1cc(-c2ccc(F)cc2F)ccc1O [diflunisal]
- gastric ulceration caused by NSAID (gastric ulceration): 0.597±0.103 cm^2

Compound: CC(C)Cc1ccc(C(C)C(=O)O)cc1 (centres unmarked) [ibuprofen]
- gastric ulceration caused by NSAID (gastric ulceration): 0.644±0.110 cm^2

Compound: COc1ccc2cc([C@H](C)C(=O)O)ccc2c1 [naproxen]
- gastric ulceration caused by NSAID (gastric ulceration): 0.370±0.056 cm^2
